This is an account of results in patent US10287271B2, “Indole compounds having antiprotozoal activity and its use as well as methods for producing the same” (TECHNISCHE UNIVERSITAET BRAUNSCHWEIG, priority 2015, dated 2019).

The assay has as its system NF54-luc P. falciparum. Briefly: luciferase-based viability assay, erythrocytic stages of transgenic NF54-luc P. falciparum. It is filed as cell-based, Plasmodium falciparum. The settings on record: for inhibition at 3 µM / inhibition at 30 µM / EC50: Plasmodium falciparum; for inhibition at 3 µM / inhibition at 30 µM: NF54, 48 hours; for inhibition at 3 µM: 3 μM test compound; for inhibition at 30 µM: 30 μM test compound; for EC50: erythrocytic stages NF54-luc, 48 hours incubation, titration. As for the experimental part:
Erythrocytic stages of transgenic NF54-luc P. falciparum were used for the luciferase-based viability assay. First, the culture was dispensed in triplicate into white 96-well flat bottom plates (each well contains 250 ul) (NUNC, Denmark) with parasitemia of 0.5-1%. Then the cultures were incubated in the presence of a 30 μM concentration of the test compounds for 48 hours (37° C., 90% N2, 5% CO2, and 5% O2). Subsequently, 100 ul RPMI1640 media was removed from each well and a 100 μL volume of the Bright-Glo® substrate solution was added to each well. One of the cleavage products of the reaction is light, which was measured by a FLUOROSKAN FL luminometer (Thermo) machine; thereby detecting the amount of living parasites. In case the inhibition of the proliferation exceeded 50%, the experiments were repeated with 3 μM solutions. […] The EC50 value is the half maximal effective concentration (the concentration at which half maximal inhibition is observed). Untreated cultures were used as negative controls and to calculate the inhibition rate (0% inhibition of parasite growth). Blasticidin (Sigma-Aldrich, St. Louis, Mo.), a drug used for selection of transfected parasites, was included as a positive control on each plate and gave >90% inhibition of parasite growth at 2 μg/mL.

For `CN(CC[C@H](N)CC(=O)N[C@H]1C=C[C@H](n2ccc(N)nc2=O)O[C@@H]1C(=O)O)C(=N)N` [Blasticidin, reference compound], for the setting “positive control at 2 μg/mL”, the “inhibition of parasite growth” value is > 90%. On to `O=c1c(-c2c(-c3ccccc3)[nH]c3ccccc23)c(-c2c(-c3ccccc3)[nH]c3ccccc23)c1=O` [KuHL009, 3,4-Bis(2-phenyl-1H-indol-3-yl)cyclobut-3-ene-1,2-dione], for which 3 µM produced 41.1 ± 0.6% inhibition, the inhibition at 30 µM is 98.9 ± 0.8% and the EC50 stood at 2.47 µM. Regarding `Cc1[nH]c2ccccc2c1-c1c(-c2c(C)[nH]c3ccccc23)c(=O)c1=O` [KuHL012, 3,4-Bis(2-methyl-1H-indol-3-yl)cyclobut-3-ene-1,2-dione], at 3 µM the inhibition was 18.3 ± 6.3% and the inhibition at 30 µM is 77.8 ± 5.9%.

As for `COc1ccc2[nH]cc(-c3c(-c4c(C)[nH]c5ccccc45)c(=O)c3=O)c2c1` [KuHL018, 3-(5-Methoxy-1H-indol-3-yl)-4-(2-methyl-1H-indol-3-yl)cyclobut-3-en-1,2-dione], the inhibition at 3 µM is 34.2 ± 8%, 30 µM produced 99.6 ± 0.2% inhibition and the concentration for a half-maximal effect (EC50) is 10 µM. The corresponding values for `Cc1[nH]c2ccccc2c1-c1c(-c2c[nH]c3ccccc23)c(=O)c1=O` [KuHL025, 3-(1H-Indol-3-yl)-4-(2-methyl-1H-indol-3-yl)cyclobut-3-ene-1,2-dione] are 23.4 ± 5.4%, 98.8 ± 0.5% and > 30 µM. `Cc1[nH]c2ccccc2c1-c1c(-c2c(-c3ccccc3)[nH]c3ccccc23)c(=O)c1=O` [KuHL026, 3-(2-Methyl-1H-indol-3-yl)-4-(2-phenyl-1H-indol-3-yl)cyclobut-3-ene-1,2-dione] had an inhibition at 3 µM of 41.1 ± 1.7%, an inhibition at 30 µM of 98.4 ± 0.5% and an EC50 of 9.26 µM. The like results for `Cc1[nH]c2ccccc2c1-c1c(-c2c[nH]c3ccc(Br)cc23)c(=O)c1=O` [KuHL027, 3-(5-Bromo-1H-indol-3-yl)-4-(2-methyl-1H-indol-3-yl)cyclobut-3-ene-1,2-dione] were, in that order, 45.6 ± 1.8%, 99.3 ± 0.4% and 30.5 µM. The corresponding values for `Cn1cc(-c2c(-c3c[nH]c4ccccc34)c(=O)c2=O)c2ccccc21` [KuHL032, 3-(1H-Indol-3-yl)-4-(1-methyl-1H-indol-3-yl)cyclobut-3-ene-1,2-dione] are 52 ± 1.8%, 98.7 ± 1.1% and 2.97 µM. Consider `O=c1c(-c2c[nH]c3ccccc23)c(-c2c[nH]c3ccc(Br)cc23)c1=O` [KuHL037, 3-(5-Bromo-1H-indol-3-yl)-4-(1H-indol-3-yl)cyclobut-3-ene-1,2-dione], for which the inhibition at 3 µM is 65.9 ± 1.8%, the inhibition at 30 µM was found to be 99.5 ± 0.4% and the EC50 stood at 3.02 µM. The corresponding values for `O=c1c(-c2c[nH]c3ccccc23)c(-c2c[nH]c3ccccc23)c1=O` [KuHL043, 3,4-Bis(1H-indol-3-yl)cyclobut-3-ene-1,2-dione] are 17.9 ± 3.3%, 99.2 ± 0.2% and 8.33 µM. The corresponding values for `O=c1c(-c2c[nH]c3ccccc23)c(-c2c(-c3ccccc3)[nH]c3ccccc23)c1=O` [KuHL044, 3-(1H-Indol-3-yl)-4-(2-phenyl-1H-indol-3-yl)cyclobut-3-ene-1,2-dione] are 65 ± 2.8%, 99.7 ± 0.1% and 6.38 µM. The corresponding values for `COc1ccc2[nH]cc(-c3c(-c4c[nH]c5ccc(Br)cc45)c(=O)c3=O)c2c1` [KuHL047, 3-(5-Bromo-1H-indol-3-yl)-4-(5-methoxy-1H-indol-3-yl)cyclobut-3-ene-1,2-dione] are 100%, 98.8 ± 0.7% and 0.47 µM. As to `COc1ccc2[nH]cc(-c3c(-c4c[nH]c5ccc(OC)cc45)c(=O)c3=O)c2c1` [KuHL048, 3,4-Bis(5-methoxy-1H-indol-3-yl)cyclobut-3-ene-1,2-dione], 3 µM produced 19.7 ± 3.6% inhibition and testing at 30 µM gave an inhibition of 79.3 ± 1.3%. `COc1ccc2[nH]cc(-c3c(-c4c[nH]c5ccccc45)c(=O)c3=O)c2c1` [KuHL049, 3-(1H-Indol-3-yl)-4-(5-methoxy-1H-indol-3-yl)cyclobut-3-ene-1,2-dione] yielded an inhibition at 3 µM of 18.3 ± 5%. Consider `Cc1[nH]c2ccccc2c1-c1c(-c2cn(C)c3ccccc23)c(=O)c1=O` [KuHL050, 3-(1-Methyl-1H-indol-3-yl)-4-(2-methyl-1H-indol-3-yl)cyclobut-3-ene-1,2-dione], for which 3 µM produced 59.6 ± 0.2% inhibition, testing at 30 µM gave an inhibition of 99.3 ± 0.3% and the concentration for a half-maximal effect (EC50) was 2.67 µM. Turning to `COc1ccc2[nH]cc(-c3c(-c4cn(C)c5ccccc45)c(=O)c3=O)c2c1` [KuHL057, 3-(5-Methoxy-1H-indol-3-yl)-4-(1-methyl-1H-indol-3-yl)cyclobut-3-ene-1,2-dione], the inhibition at 30 µM came to 13.6 ± 3.9%. Turning to `COc1ccc2[nH]cc(-c3c(-c4c(-c5ccccc5)[nH]c5ccccc45)c(=O)c3=O)c2c1` [KuHL058, 3-(5-Methoxy-1H-indol-3-yl)-4-(2-phenyl-1H-indol-3-yl)cyclobut-3-ene-1,2-dione], the inhibition at 3 µM is 22.4 ± 2.7%. The same measure, in the same setting: under `O=c1c(-c2c[nH]c3ccc(Br)cc23)c(-c2c(-c3ccccc3)[nH]c3ccccc23)c1=O` [KuHL071, 3-(5-Bromo-1H-indol-3-yl)-4-(2-phenyl-1H-indol-3-yl)cyclobut-3-ene-1,2-dione] stands 16 ± 0.7%.

`Cn1cc(-c2c(-c3c(-c4ccccc4)[nH]c4ccccc34)c(=O)c2=O)c2ccccc21` [KuHL072, 3-(1-Methyl-1H-indol-3-yl)-4-(2-phenyl-1H-indol-3-yl)cyclobut-3-ene-1,2-dione] had an inhibition at 3 µM of 67.7 ± 0.7% and a 50% effective concentration (EC50) of 1.72 µM.

`Cc1[nH]c2ccccc2c1-c1c(-c2cn(C)c3ccc(Br)cc23)c(=O)c1=O` [KuHL077, 3-(5-Bromo-1-methyl-1H-indol-3-yl)-4-(2-methyl-1H-indol-3-yl)cyclobut-3-ene-1,2-dione] showed an inhibition at 3 µM of 12.7 ± 2.8%. Regarding `COc1ccc2[nH]cc(-c3c(-c4c[nH]c5ccc(I)cc45)c(=O)c3=O)c2c1` [KuHL101, 3-(5-Iodo-1H-indol-3-yl)-4-(5-methoxy-1H-indol-3-yl)cyclobut-3-ene-1,2-dione], the inhibition at 3 µM was determined as 99.1 ± 0.4% and the half-maximal effective concentration (EC50) was 0.65 µM.

As to `COc1ccc2[nH]cc(-c3c(-c4c[nH]c5ccc(Cl)cc45)c(=O)c3=O)c2c1` [KuHL102, 3-(5-Chloro-1H-indol-3-yl)-4-(5-methoxy-1H-indol-3-yl)cyclobut-3-ene-1,2-dione], 3 µM produced 87 ± 0.5% inhibition and the midpoint of the response, the EC50, lay at 1.52 µM.

The molecule `COc1ccc2[nH]cc(-c3c(-c4c[nH]c5ccc(C#N)cc45)c(=O)c3=O)c2c1` [KuHL103, 3-[2-(5-Methoxy-1H-indol-3-yl)-3,4-dioxocyclobut-1-ene-1-yl]-1H-indol-5-carbonitrile] returned an inhibition at 3 µM of 26.8 ± 1.1%. The same measure, in the same setting: next, `COc1ccc2[nH]cc(-c3c(-c4c[nH]c5ccc(F)cc45)c(=O)c3=O)c2c1` [KuHL113, 3-(5-Fluoro-1H-indol-3-yl)-4-(5-methoxy-1H-indol-3-yl)cyclobut-3-ene-1,2-dione]: 19.3 ± 3.1%; `O=c1c(-c2c[nH]c3ccccc23)c(-c2c[nH]c3ccc(I)cc23)c1=O` [KuHL117, 3-(1H-indol-3-yl)-4-(5-iodo-1H-indol-3-yl)cyclobut-3-ene-1,2-dione]: 31.3 ± 2.7%; `O=c1c(-c2c[nH]c3ccccc23)c(-c2c[nH]c3ccc(Cl)cc23)c1=O` [KuHL118, 3-(5-Chloro-1H-indol-3-yl)-4-(1H-indol-3-yl)cyclobut-3-ene-1,2-dione]: 44.7 ± 0.5%. With `N#Cc1ccc2[nH]cc(-c3c(-c4c[nH]c5ccccc45)c(=O)c3=O)c2c1` [KuHL122, 3-[2-(1H-Indol-3-yl)-3,4-dioxocyclobut-1-ene-1-yl]-1H-indol-5-carbonitrile], the inhibition at 3 µM worked out at 26.8 ± 1.6%. Same read-out and setting: next, `COc1ccc2[nH]cc(-c3c(-c4c[nH]c5ccc(OCc6ccccc6)cc45)c(=O)c3=O)c2c1` [KuHL136, 3-[5-(Benzyloxy)-1H-indol-3-yl]-4-(5-methoxy-1H-indol-3-yl)cyclobut-3-ene-1,2-dione]: 21.7 ± 2.5%.
